# Test system: polarized human airway epithelial cultures (HAEC)
compound,measurement,value
COc1cccc2[nH]c(C(=O)N[C@@H](CC(C)C)C(=O)N[C@@H](C[C@@H]3CCNC3=O)C(=O)CO)cc12 [PF-00835231],effect on transepithelial resistance (TEER) over time,we did not observe this trend
